How the values were obtained:
Recombinant human p38α = biological target: T1, Recombinant human p38α (Homo sapiens, UniProt Q16539); assay: Fluorescence anisotropy kinase binding assay (standard or low volume); conditions: 12 nM p38α, 5 nM fluorescent ligand
T1 construct: GST; made in house
Method in brief: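 Activated GST-tagged recombinant human p38α (pre-activated with MBP-MKK6 DD) at 12 nM final with 5 nM rhodamine green-labelled pyridinylimidazole tracer in pH 7.5 HEPES/CHAPS/DTT/MgCl2 buffer. Test compound 0.28 nM–16.6 μM or 0.02 nM–25 μM final, 3% or 1.7% DMSO; 30–60 min at room temperature. Fluorescence anisotropy read (ex 485/em 535 nm) for Ki.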

[1] = test system: influx of neutrophils to the lung in LPS-challenged rats; assay: Rat LPS neutrophilia model; type: in vivo; conditions: LPS aerosol, lavage 4 hours later, in at least one of the range of conditions tested, significance p<0.05
Method in brief: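 Rats pretreated 15 min–24 h with compound or vehicle, given intratracheally (200 ul, isoflurane anaesthesia) as suspension in various vehicles, then exposed to LPS aerosol (100 ug/ml) 15 min. BAL 4 h later; Diffquick-stained differential counts give % inhibition of neutrophils versus no-compound controls at a set concentration and pretreatment time.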

T1 sequence (Q16539 whole entry): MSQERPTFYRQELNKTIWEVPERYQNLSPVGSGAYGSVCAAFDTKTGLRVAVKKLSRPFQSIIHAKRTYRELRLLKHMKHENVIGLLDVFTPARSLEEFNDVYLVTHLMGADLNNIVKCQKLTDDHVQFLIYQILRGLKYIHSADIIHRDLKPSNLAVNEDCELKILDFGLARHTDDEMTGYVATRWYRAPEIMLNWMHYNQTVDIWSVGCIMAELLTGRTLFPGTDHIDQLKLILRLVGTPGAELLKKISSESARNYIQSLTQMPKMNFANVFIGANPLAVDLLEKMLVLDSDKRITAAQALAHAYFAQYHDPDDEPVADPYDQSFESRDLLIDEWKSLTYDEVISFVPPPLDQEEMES

| Compound | active in the assay (pIC50, p38α binding) (Recombinant human p38α) | melting point | inhibition of neutrophilia [1] |
| --- | --- | --- | --- |
| COc1nc(-c2cc(NC(=O)c3ccsc3)ccc2C)c2c(n1)N(c1c(F)cccc1F)C(=O)NC2 [10(e), N-{3-[8-(2,6-difluorophenyl)-2-(methyloxy)-7-oxo-5,6,7,8-tetrahydropyrimido-[4,5-d]pyrimidin-4-yl]-4-methylphenyl}-3-thiophenecarboxamide] | active | 225 to 228 °C (dec.) |  |
| Cc1ccc(C(=O)NCc2ccccc2)cc1-c1nc(N2CCC(N)CC2)nc2c1CNC(=O)N2c1c(F)cccc1F [15(c), 3-[2-(4-Amino-1-piperidinyl)-8-(2,6-difluorophenyl)-7-oxo-5,6,7,8-tetrahydropyrimido[4,5-d]pyrimidin-4-yl]-4-methyl-N-(phenylmethyl)benzamide] | active | 210 to 266 °C (dec.) |  |
| CNCCNc1nc(-c2cc(C(=O)NCc3ccccc3)ccc2C)c2c(n1)N(c1c(F)cccc1F)C(=O)NC2 [19(b), 3-(8-(2,6-Difluorophenyl)-2-{[2-(methylamino)ethyl]amino}-7-oxo-5,6,7,8-tetrahydropyrimido[4,5-d]pyrimidin-4-yl)-4-methyl-N-(phenylmethyl)benzamide] | active | 157 to 161 °C |  |
| Cc1ccc(C(=O)NCc2ccccc2)cc1-c1nc(NC2CCNCC2)nc2c1CNC(=O)N2c1c(F)cccc1F [21(b), 3-[8-(2,6-Difluorophenyl)-7-oxo-2-(4-piperidinylamino)-5,6,7,8-tetrahydropyrimido[4,5-d]pyrimidin-4-yl]-4-methyl-N-(phenylmethyl)benzamide] | active | 172 to 176 °C (dec.) |  |
| Cc1ccc(NC(=O)c2ccsc2)cc1-c1nc(N2CCC(N)CC2)nc2c1CNC(=O)N2c1c(F)cccc1F [Example 11, N-{3-[2-(4-amino-1-piperidinyl)-8-(2,6-difluorophenyl)-7-oxo-5,6,7,8-tetrahydropyrimido[4,5-d]pyrimidin-4-yl]-4-methylphenyl}-3-thiophenecarboxamide] |  | 250 to 261 °C (dec.) | statistically significant inhibition of neutrophilia |
| Cc1ccc(C(=O)NCc2ccccc2)cc1-c1nc(N(C)CCCN(C)C)nc2c1CNC(=O)N2c1c(F)cccc1F [Example 17, 3-{8-(2,6-Difluorophenyl)-2-[[3-(dimethylamino)propyl](methyl)amino]-7-oxo-5,6,7,8-tetrahydropyrimido[4,5-d]pyrimidin-4-yl}-4-methyl-N-(phenylmethyl)benzamide] |  | 124 to 127 °C | statistically nonsignificant inhibition of neutrophilia |
| Cc1ccc(C(=O)NCc2ccccc2)cc1-c1nc(NCCNC(C)C)nc2c1CNC(=O)N2c1c(F)cccc1F [Example 20, 3-[8-(2,6-Difluorophenyl)-2-({2-[(1-methylethyl)amino]ethyl}amino)-7-oxo-5,6,7,8-tetrahydropyrimido[4,5-d]pyrimidin-4-yl]-4-methyl-N-(phenylmethyl)benzamide] | active | 133 to 137 °C |  |
| Cc1ccc(C(=O)NCc2ccccc2)cc1-c1nc(NC2CCN(C)CC2)nc2c1CNC(=O)N2c1c(F)cccc1F [Example 22, 3-[8-(2,6-Difluorophenyl)-2-[(1-methyl-4-piperidinyl)amino]-7-oxo-5,6,7,8-tetrahydropyrimido[4′-d]pyrimidin-4-yl]-4-methyl-N-(phenylmethyl)benzamide] | active | 152 to 154 °C (dec.) |  |
| Cc1ccc(C(=O)Nc2ccc(C)c(-c3nc(N4CCC(N)CC4)nc4c3CNC(=O)N4c3c(F)cccc3F)c2)cc1F [Example 24, N-{3-[2-(4-amino-1-piperidinyl)-8-(2,6-difluorophenyl)-7-oxo-5,6,7,8-tetrahydropyrimido[4,5-d]pyrimidin-4-yl]-4-methylphenyl}-3-fluoro-4-methylbenzamide] |  | 240 °C | statistically nonsignificant inhibition of neutrophilia |
| Cc1ccc(C(=O)Nc2ccc(C)c(-c3nc(OC(C)C)nc4c3CNC(=O)N4c3c(F)cccc3F)c2)cc1F [Example 26, N-(3-{8-(2,6-difluorophenyl)-2-[(1-methylethyl)oxy]-7-oxo-5,6,7,8-tetrahydropyrimido[4,5-d]pyrimidin-4-yl}-4-methylphenyl)-3-fluoro-4-methylbenzamide] |  | 253.5 to 255.4 °C | inactive |
| Cc1ccc(C(=O)NCc2ccccc2)cc1-c1nc(N2CCN(C)CC2)nc2c1CNC(=O)N2c1c(F)cccc1F [Example 148] |  | 164 to 168 °C | statistically nonsignificant inhibition of neutrophilia |
| Cc1ccc(C(=O)NCc2ccccc2)cc1-c1nc(NCCCN(C)C)nc2c1CNC(=O)N2c1c(F)cccc1F [Example 151] |  | 141 to 144 °C | statistically nonsignificant inhibition of neutrophilia |
| CNC(=O)c1ccc(C)c(-c2nc(NCCN(C)C)nc3c2CNC(=O)N3c2c(F)cccc2F)c1 [Example 163(c), 3-(8-(2,6-difluorophenyl)-2-{[2-(dimethylamino)ethyl]amino}-7-oxo-5,6,7,8-tetrahydropyrimido[4,5-d]-pyrimidin-4-yl)-N,4-dimethylbenzamide] | active | 155 to 158 °C (dec.) |  |
| CNC(=O)c1ccc(C)c(-c2nc(NCCCN(C)C)nc3c2CNC(=O)N3c2c(F)cccc2F)c1 [Example 166, 3-(8-(2,6-difluorophenyl)-2-{[3-(dimethylamino)propyl]amino}-7-oxo-5,6,7,8-tetrahydropyrimido[4,5-d]pyrimidin-4-yl)-N,4-dimethylbenzamide] |  | 164 to 167 °C (dec.) | statistically nonsignificant inhibition of neutrophilia |
| CNC(=O)c1ccc(C)c(-c2nc(N3CCN(C)CC3)nc3c2CNC(=O)N3c2c(F)cccc2F)c1 [Example 169, 3-[8-(2,6-difluorophenyl)-2-(4-methyl-1-piperazinyl)-7-oxo-5,6,7,8-tetrahydropyrimido[4,5-d]pyrimidin-4-yl]-N,4-dimethylbenzamide] |  | 164 to 168 °C (dec.) |  |
| CNC(=O)c1ccc(C)c(-c2nc(NCCCNC(C)(C)C)nc3c2CNC(=O)N3c2c(F)cccc2F)c1 [Example 170, 3-[8-(2,6-difluorophenyl)-2-({3-[(1,1-dimethylethyl)amino]propyl}amino)-7-oxo-5,6,7,8-tetrahydropyrimido[4,5-d]pyrimidin-4-yl]-N,4-dimethylbenzamide] |  | 166 to 170 °C (dec.) |  |
| CCCCN(CCCC)CCCNc1nc(-c2cc(C(=O)NC)ccc2C)c2c(n1)N(c1c(F)cccc1F)C(=O)NC2 [Example 171, 3-[2-{[3-(dibutylamino)propyl]amino}-8-(2,6-difluorophenyl)-7-oxo-5,6,7,8-tetrahydropyrimido[4,5-d]pyrimidin-4-yl]-N,4-dimethylbenzamide] |  | 112 to 115 °C |  |
| CCN(CC)CCCNc1nc(-c2cc(C(=O)NC)ccc2C)c2c(n1)N(c1c(F)cccc1F)C(=O)NC2 [Example 172, 3-[2-{[3-(diethylamino)propyl]amino}-8-(2,6-difluorophenyl)-7-oxo-5,6,7,8-tetrahydropyrimido[4,5-d]pyrimidin-4-yl]-N,4-dimethylbenzamide] |  | 133 to 136 °C | statistically nonsignificant inhibition of neutrophilia |
| CNC(=O)c1ccc(C)c(-c2nc(NC3CCN(C)CC3)nc3c2CNC(=O)N3c2c(F)cccc2F)c1 [Example 173, 3-{8-(2,6-difluorophenyl)-2-[(1-methyl-4-piperidinyl)amino]-7-oxo-5,6,7,8-tetrahydropyrimido[4,5-d]pyrimidin-4-yl}-N,4-dimethylbenzamide] |  | 205 to 209 °C (dec.) |  |
| CNC(=O)c1ccc(C)c(-c2nc(N(C)CCCN(C)C)nc3c2CNC(=O)N3c2c(F)cccc2F)c1 [Example 174, 3-{8-(2,6-difluorophenyl)-2-[[3-(dimethylamino)propyl](methyl)amino]-7-oxo-5,6,7,8-tetrahydropyrimido[4,5-d]pyrimidin-4-yl}-dimethylbenzamide] |  | 163 to 165 °C | inactive |
| CNC(=O)c1ccc(C)c(-c2nc(N3CCC(N4CCCC4)CC3)nc3c2CNC(=O)N3c2c(F)cccc2F)c1 [Example 175, 3-{8-(2,6-difluorophenyl)-7-oxo-2-[4-(1-pyrrolidinyl)-1-piperidinyl]-5,6,7,8-tetrahydropyrimido[4,5-d]pyrimidin-4-yl}-N,4-dimethylbenzamide] |  | 189 to 194 °C (dec.) | inactive |
| CNC(=O)c1ccc(C)c(-c2nc(N3CCC(N4CCCCC4)CC3)nc3c2CNC(=O)N3c2c(F)cccc2F)c1 [Example 176, 3-[2-(1,4′-bipiperidin-1′-yl)-8-(2,6-difluorophenyl)-7-oxo-5,6,7,8-tetrahydropyrimido[4,5-d]pyrimidin-4-yl]-N,4-dimethylbenzamide] |  | 179 to 184 °C (dec.) | statistically nonsignificant inhibition of neutrophilia |

— US20090239846A1, “Novel Compounds” (Glaxo Group Limited, priority 2005, published 2009)
